Reference: patent US8404646B2, “Methods for preventing or treating mitochondrial permeability transition” (Cornell Research Foundation, Inc., priority 2003, dated 2013)
Entries after “also recorded” stand apart in the source; their conditions may differ. Non-standard residues stand in square brackets, D forms with d. Residues, ends and D or L forms follow the SMILES beside them. Dmt = Cc1cc(O)cc(C)c1C[C@H](N)C(=O)O

How the values were obtained:
isolated mitochondria [1] = experiment: Mitochondrial swelling (absorbance 540 nm or light scattering 570 nm); format: biochemical, mouse; conditions: 50 μM peptide, light scattering at 570 nm
Description: (§1) MPT pore opening results in mitochondrial swelling. We examined the effects of [Dmt^1]DALDA on mitochondrial swelling by measuring reduction in absorbance at 540 nm (A540). The mitochondrial suspension was then centrifuged and cytochrome c in the mitochondrial pellet and supernatant determined by a commercially-available ELISA kit.
(§2) The methods for study are as described above for SS-02. In this example, mitochondrial swelling was measured using light scattering monitored at 570 nm.

[2] = Body weight and heart rate during the infarction/reperfusion experiment; format: in vivo, rat
Description: Adult male […] rats (F344 strain, National Institute of Aging, maintained by Harian Sprague-Dawley Inc.), weighting between 285 and 425 gm, were used. Twenty-four rats (n=8/group) were randomly assigned to one of three groups: (1) Control group was given 0.4 ml of saline as an intra-peritoneal (IP) injection 30 minutes before the ligation of left anterior descending coronary artery, followed by same IP dose injection 5 minutes before reperfusion; (2) SS-31 group was treated with SS-31 (3 mg/kg dissolved in 0.4 ml of saline) as an IP injection 30 minutes before the ligation followed by same IP dose injection as maintenance 5 minutes before reperfusion; and (3) SS-20 group was treated with SS-20 (3 mg/kg dissolved in 0.4 ml of saline) as an IP injection 30 minutes before the ligation followed by same dose IP injection as maintenance just 5 minutes before reperfusion. Also, Sham-operated rats (n=3) were used to account for possible effects related to the surgical protocol. All procedures were performed in a blinded manner, with the groups assigned letters and their identities unknown to the operators. Likewise, the two independent investigators analyzing the data were blind to the treatment assignments.
After anesthesia with ketamine (90 mg/kg IP) and xylazine (4 mg/kg IP), a tracheotomy was performed, and the rat was intubated with polyethylene tube and ventilated (Harvard Rodent Ventilator model 683) with room air and a tidal volume of 0.65 ml/100 gm of body weight at 90 breaths per minute. Body temperature was maintained at 37° C. by using a heated operating table. The internal jugular vein was surgically exposed and a polyethylene tube was inserted for Evans blue dye solution injection. Peripheral limb electrodes were inserted subcutaneously and electrocardiogram was monitored throughout the procedure.
An ECG was recorded continuously from a standard lead II (AC AMP 700) inserted into the limbs of all rats. The ECG was printed at 25 mm/second. The cardiac arrhythmias were monitored and assessed in accordance with the Lambeth Convention. The assessment was performed in a blinded manner using the original paper recordings. A validated score was used to quantify the severity of cardiac arrhythmias. The score consisted of six types: 0, no ventricular extrasystoles (VES), ventricular tachycardia (VT) or ventricular fibrillation (VF); 1=VES; 2=one to five episodes of VT (more than four coupled VES); 3=more than five episodes of VT and/or one VF; 4=two to five episodes of VF; 5=more than five episodes of VF.
(§3) All values are expressed as mean±standard error of mean (S.E.M.). Statistical analyses were performed using SPSS version 10. Differences among groups in body weight, heart rate, arrhythmia, area at risk as a percentage of the left ventricle, and area of infarction as a percentage of the area at risk were analyzed using ANOVA. If significant differences were detected, comparisons between the control group and the 2 treatment groups were conducted using the Mann-Whitney U-test. A two-tailed p<0.05 was regarded as significant.

[3] = tested on: mitochondrial permeability transition (MPT) in isolated mitochondria; experiment: Mitochondrial membrane potential and MPT measured with TMRM; format: biochemical, mouse; conditions: pretreatment 10 μM
Description: In addition to having no direct effect on mitochondrial potential, [Dmt^1]DALDA was able to protect against MPT induced by Ca^2+ overload.
3-Nitropropionic acid (3NP) is an irreversible inhibitor of succinate dehydrogenase in complex II of the electron transport chain. Addition of 3NP (1 mM) to isolated mitochondria caused dissipation of mitochondrial potential and onset of MPT (FIG. 2C).

Sprague-Dawley rats [4] = experiment: Assessment of arrhythmias in infarction/reperfusion; format: in vivo, rat; conditions: 3 mg/kg IP twice, entire study period
Description: (§4) Adult male […] rats (F344 strain, National Institute of Aging, maintained by Harian Sprague-Dawley Inc.), weighting between 285 and 425 gm, were used. […]
An ECG was recorded continuously from a standard lead II (AC AMP 700) inserted into the limbs of all rats. […] The cardiac arrhythmias were monitored and assessed in accordance with the Lambeth Convention. […] A validated score was used to quantify the severity of cardiac arrhythmias. […]
as §3, with “Statistical analyses were performed using SPSS version 10.” left out, “A two-tailed p<0.05 was regarded as significant.” left out

Sprague-Dawley rats [5] = experiment: Myocardial infarction/reperfusion, area at risk and area of infarction; format: in vivo, rat; conditions: 3 mg/kg IP 30 min before ligation and 5 min before reperfusion; 1 h ischemia, 1 h reperfusion
Description: as §4
After anesthesia with ketamine (90 mg/kg IP) and xylazine (4 mg/kg IP), a tracheotomy was performed, and the rat was intubated with polyethylene tube and ventilated (Harvard Rodent Ventilator model 683) with room air and a tidal volume of 0.65 ml/100 gm of body weight at 90 breaths per minute. […] Peripheral limb electrodes were inserted subcutaneously and electrocardiogram was monitored throughout the procedure. […]
At the end of reperfusion, the left coronary artery was briefly re-occluded and Evans blue dye solution (2 ml of 2%, Sigma) was slowly injected into the jugular vein to distinguish the perfused area (blue staining) from the area at risk (no staining). […] After a 14-day formalin immersion, the slices were scanned again and all scanned areas were quantified with NIH Imagesoftware. […]

[6] = tested on: isolated perfused guinea pig heart; experiment: Ischemia-reperfusion myocardial stunning in isolated perfused heart (Langendorff); conditions: 1 nM
Description: Guinea pig hearts were rapidly isolated, and the aorta was cannulated in situ and perfused in a retrograde fashion with an oxygenated Krebs-Henseleit solution (pH 7.4) at 34° C. The heart was then excised, mounted on a modified Langendorff perfusion apparatus, and perfused at constant pressure (40 cm H2O). Contractile force was measured with a small hook inserted into the apex of the left ventricle and the silk ligature tightly connected to a force-displacement transducer. Coronary flow was measured by timed collection of pulmonary artery effluent.
Reperfusion was carried out with the same solution used prior to ischemia.

N2A cells = experiment: tBHP-induced mitochondrial depolarization (TMRM, confocal); format: cell-based; conditions: 50 μM tBHP, 1 nM peptide, 6 h
Description: FIG. 7. SS-31 protected against tBHP-induced mitochondrial depolarization and viability. N2A cells were plated in glass bottom dishes and treated with (A) control, or with (B) 50 μM tBHP, alone or with (e) 1 nM SS-31, for 6 hours. Cells were loaded with TMRM (20 nM) and imaged by confocal laser scanning microscopy using ex/em of 552/570 nm.
To investigate whether SS-31 prevents mitochondria) depolarization caused by tBHP, N2A cells were treated with 50 μM tBHP for 6 h.

isolated mitochondria [7] = experiment: Cytochrome c release from isolated mitochondria (ELISA); format: biochemical, mouse; conditions: Ca2+ overload
Description: as §1, §2

Cc1cc(O)cc(C)c1C[C@H](NC(=O)[C@H](N)CCCNC(=N)N)C(=O)N[C@@H](CCCCN)C(=O)N[C@@H](Cc1ccccc1)C(N)=O [SS-31, D-Arg-2′6′Dmt-Lys-Phe-NH2] (H-[dR][Dmt]KF-NH2; N-terminus assumed)
mitochondrial swelling induced by Ca2+ (isolated mitochondria [1]): same ability to protect; also recorded: inhibited mitochondrial swelling | Heart Rate Baseline ([2]; Baseline): 257 ± 10 | Heart Rate Ischemia ([2]; first column): 184 ± 14 | Heart Rate Ischemia ([2]; second column): 169 ± 15 | Heart Rate Open chest ([2]; Open chest): 236 ± 8 | Heart Rate Reperfusion ([2]; first column): 161 ± 12 | Heart Rate Reperfusion ([2]; second column): 164 ± 13 | MPT induced by Ca2+ overload [3]: same ability to protect; also recorded: prevents onset of MPT | Severity and occurrence rate of cardiac arrhythmias (score) (Sprague-Dawley rats [4]): 5 points | AAR/LV ratio (area at risk relative to left ventricle) (Sprague-Dawley rats [5]): 55.9±1.4% | AI/AAR ratio (area of infarction as percentage of area at risk) (Sprague-Dawley rats [5]): 53.9±1.1% | cardiac stunning [6]: complete inhibition of cardiac stunning | coronary flow throughout reperfusion [6]: well-sustained | heart rate [6]: no decrease | myocardial contractile force during ischemia-reperfusion ([6]; 30 min global ischemia): tolerated ischemia much better than buffer-treated hearts; also recorded: protects myocardial contractile force | tBHP-induced loss of mitochondrial potential (TMRM fluorescence) (N2A cells): completely blocked; also recorded: protected | Ca2+-induced release of cytochrome c (isolated mitochondria [7]): same ability to protect
